Assay results published in publication PMC5841658, “Anti-cancer characteristics and ototoxicity of platinum(II) amine complexes with only one leaving ligand” (PLoS ONE, 2018).

Experiments:
[1] = system: U-138 MG (HTB-16) glioblastoma cancer cell line; experiment: MTT cellular viability assay, HTB16; assay type: cell-based; settings: HTB16 (glioma), 72 hours, ± standard deviation
Description: (§1) Cell lines were obtained from American Type Culture Collection (ATCC, Manassas, VA). […] Caco-2 (ATCC: HTB-37) colorectal cancer was grown in EMEM with 20% FBS and 1% penicillin/streptomycin. All cell lines were incubated at 37°C in 5% CO2 with passaging every 4–7 days. Cell culture media and supplements were obtained from ATCC, Atlanta Biologicals (Flowery Branch, GA), Mediatech (Tewksbury, MA), Fisher Scientific (Waltham, MA), Gibco (Gaithersburg, MD) and Sigma-Aldrich.
(§2) The MTT (3-(4,5-dimethylthiazol-2-yl)-2,5-diphenyltetrazolium bromide) cellular viability assay was performed in all three cancer cell lines and the non-cancer cell line. Following a protocol adapted from, cells were seeded at 5,000 cells per well in 96-well plates and incubated at 37°C in 5% CO2 in F-12K Medium or EMEM with FBS supplementation and 1% penicillin/streptomycin for 24 hours. Then, wells were treated in replicates of six according to a concentration series (500, 50, 5, 0.5, 0.05 μM) of specific platinum complexes for 72 hours. A negative control (media only), positive control (Triton X-100) and series of blanks were simultaneously performed. The MTT assay was run for 2 hours, then well contents were rapidly evacuated out and all wells were treated with MTT solubilization solution [10% Triton X-100 in acidic (0.1N HCl) isopropanol] for 15 minutes before the plates were read using a BioTek Synergy HT microplate plate reader (570 nm and 690 nm absorbance wavelengths). Reagents, cell culture media and supplements were obtained from ATCC, Atlanta Biologicals, Mediatech, Fisher Scientific, Gibco and Sigma-Aldrich.
(§3) GraphPad Prism v6 (La Jolla, CA) was used for all statistical analysis. Nuclear fraction platinum uptake as a total percent of combined nuclear and cytosolic uptake was analyzed using a one-way ANOVA (Brown-Forsyth test; p ≤ 0.05). IC50 values were calculated in Prism using the sigmoidal, 4PL, x is log(concentration) analysis feature or were calculated from Prism derived values using the equation y = mx + b. MTT assay standard deviation values were calculated using ED50plus v1.0 online software. AEP threshold data were analyzed by two-way ANOVA (Dunnett’s multiple comparisons test; p ≤ 0.05) and hair cell quantification data by two-way ANOVA (Tukey’s multiple comparisons test; p ≤ 0.05). AEP temporary threshold shifts (TTS) were calculated by subtracting the mean vehicle threshold for each frequency from each treatment threshold. TTS data were averaged across frequencies for each treatment and were analyzed by one-way ANOVA (Tukey’s multiple comparisons test; p ≤ 0.05).

[2] = system: IMR-90 lung fibroblast control cell line; experiment: MTT cellular viability assay, IMR90; assay type: cell-based; settings: IMR90 (fibroblast, non-cancer), 72 hours, ± standard deviation
Description: as §1, §2, §3

[3] = system: Caco-2 colorectal cancer cell line; experiment: MTT cellular viability assay, Caco2; assay type: cell-based; settings: 72 hours, ± standard deviation
Description: as §1, §2, §3

[4] = system: zebrafish saccule hair cells; experiment: Hair cell quantification, saccule; assay type: in vivo, Danio rerio; settings: 25 mg/kg i.p., 48 hours; for effect on hair cell density in four regions of the saccule compared to vehicle: 5, 25, 50, 75% regions
Description: (§4) Zebrafish (Danio rerio) were purchased from a commercial supplier (Segrest Farms, Gibsonton, FL) and maintained in the animal facility of Western Kentucky University according to a protocol approved by the Institutional Animal Care and Use Committee. All zebrafish used in this study were a mix of male and female adult animals at least 6 months of age and were maintained according to standard methods.
(§5) After injection, fish were returned to holding tanks for either 24 or 48 hours and then subjected to hearing tests followed by hair cell quantification analysis.
Hair cell counts were performed from specific regions of the zebrafish saccule and utricle using established procedures. […] Prior to dissection, heads were rinsed three times for 10 minutes each at room temperature in phosphate buffer (pH 7.4, LabChem, Pittsburgh, PA) and the inner ear epithelia (saccule and utricle) were then carefully dissected out and trimmed. […] Tissue samples were then placed on glass slides and nuclei were labelled with Prolong Gold antifade reagent (4’,6-diamidino-2-phenylindole [DAPI], Life Technologies, Carlsbad, CA) and a cover-slip was placed over the samples for microscopy.
Saccule and utricle samples were viewed through the FITC filter of a Zeiss Axioplan2 epifluorescence microscope (Carl Zeiss, Jena, Germany) at 20X magnification and were then photographed using an AxioCam MRm camera. Cell counts were made from four regions of the saccule (5%, 25%, 50%, 75%) along the rostral-caudal length of the organ by placing a 50 μm x 50 μm box at each location and using the microscope cell counter feature. In the utricular samples, cell counts were made from three equidistant 50 μm x 50 μm boxes in both the extrastriolar and striolar regions.
as §3

[5] = system: zebrafish hearing thresholds; experiment: Auditory evoked potential (AEP) testing in zebrafish inner ear model; assay type: in vivo, Danio rerio; settings: 25 mg/kg i.p.; for mean (± S.E.) temporary threshold shift (TTS), averaged across frequencies: 48 hours, vehicle threshold subtracted; for AEP hearing threshold, significance of pairwise comparison against cisplatin / AEP hearing threshold, significance of pairwise comparison against vehicle: 48 h
Description: as §4, §5
Auditory evoked potential (AEP) testing was performed on individual fish according to standard protocols. […] After harness placement was complete, three 27 gauge stainless steel electrodes (Rochester Electro-Medical, Inc., Lutz, FL) were inserted approximately 2 mm subdermally to record AEPs. A reference electrode was inserted into the medial dorsal surface of the head, a recording electrode directly over the brainstem and a ground electrode in the tail musculature. Sound stimuli (tone pips) were presented to each fish at 8 frequencies (100, 250, 400, 600, 800, 1000, 1500 and 3000 Hz) and AEP waveforms were collected using a TDT System III physiology apparatus (Tucker-Davis Technologies Inc., Alachua, FL) running SigGen and BioSig software. Auditory stimuli were passed through a P1000 power amplifier (Hafler, Port Coquitlam, BC) and presented with a University Sound UW-30 underwater speaker (Electro-Voice, Fairport, NY). Sound pressure levels were confirmed using a Type 10CT hydrophone (G.R.A.S., Holte, Denmark) placed adjacent to the mesh harness. Auditory thresholds were determined in 5 dB increments by visual inspection of AEP waveforms.
as §3

Row | Molecule | IC50 [1] | IC50 [2] | IC50 [3] | effect on hair cell density in four regions of the saccule compared to vehicle [4] | mean (± S.E.) temporary threshold shift (TTS), averaged across frequencies [5] | AEP hearing threshold, significance of pairwise comparison against cisplatin ([5]; 100 Hz) | AEP hearing threshold, significance of pairwise comparison against vehicle ([5]; 100 Hz) | AEP hearing threshold, significance of pairwise comparison against cisplatin ([5]; 250 Hz) | AEP hearing threshold, significance of pairwise comparison against vehicle ([5]; 250 Hz) | AEP hearing threshold, significance of pairwise comparison against cisplatin ([5]; 400 Hz) | AEP hearing threshold, significance of pairwise comparison against vehicle ([5]; 400 Hz) | AEP hearing threshold, significance of pairwise comparison against cisplatin ([5]; 600 Hz) | AEP hearing threshold, significance of pairwise comparison against vehicle ([5]; 600 Hz) | AEP hearing threshold, significance of pairwise comparison against cisplatin ([5]; 800 Hz) | AEP hearing threshold, significance of pairwise comparison against vehicle ([5]; 800 Hz) | AEP hearing threshold, significance of pairwise comparison against cisplatin ([5]; 1000 Hz) | AEP hearing threshold, significance of pairwise comparison against vehicle ([5]; 1000 Hz) | AEP hearing threshold, significance of pairwise comparison against cisplatin ([5]; 1500 Hz) | AEP hearing threshold, significance of pairwise comparison against vehicle ([5]; 1500 Hz) | AEP hearing threshold, significance of pairwise comparison against cisplatin ([5]; 3000 Hz) | other results
1 | [Cl][Pt-2]12[NH2+]CC[NH+]1CC[NH2+]2 (centres unmarked) [[Pt(dien)Cl]^+, Pt(diethylenetriamine)Cl] | 209 ± 42.3 µM | 56 ± 6.1 µM | 41.5 ± 0.72 µM | no significant reduction in hair cell bundles | 12.0 ± 3.0 dB | ns (ns, p > 0.05) | * (* p ≤ 0.05) | ns (ns, p > 0.05) | ns (ns, p > 0.05) | ns (ns, p > 0.05) | **** (**** p ≤ 0.0001) | ns (ns, p > 0.05) | **** (**** p ≤ 0.0001) | ns (ns, p > 0.05) | **** (**** p ≤ 0.0001) | ns (ns, p > 0.05) | **** (**** p ≤ 0.0001) | ns (ns, p > 0.05) | ns (ns, p > 0.05) | ns (ns, p > 0.05) | AEP hearing threshold, significance of pairwise comparison against vehicle ([5]; 3000 Hz): * (* p ≤ 0.05)
2 | phenanthriplatin | 2.41 ± 0.11 µM | 1.24 ± 0.48 µM | 1.6 ± 1.22 µM | reduction only at 50% | 13.3 ± 2.9 dB | * (* p ≤ 0.05) | *** (*** p ≤ 0.001) | ns (ns, p > 0.05) | ns (ns, p > 0.05) | ns (ns, p > 0.05) | *** (*** p ≤ 0.001) | ns (ns, p > 0.05) | ** (** p ≤ 0.01) | * (* p ≤ 0.05) | **** (**** p ≤ 0.0001) | * (* p ≤ 0.05) | **** (**** p ≤ 0.0001) | ns (ns, p > 0.05) | ns (ns, p > 0.05) | ** (** p ≤ 0.01) | saccule hair cell density, % of control ([4]; 50% location along rostral-caudal axis): 64.8 % of control; mean (± S.E.) temporary threshold shift (TTS), averaged across frequencies ([5]; listed as phenanthriplatin): 13 dB; AEP hearing threshold, significance of pairwise comparison against vehicle ([5]; 3000 Hz): **** (**** p ≤ 0.0001)
